Results reported in US20030216416A1, “Novel crystalline of n-[4-[2-(2-amino-4,7-dihydro-4oxo-3h-pyrrolo[2,3-d]pyrimidin-5-yl)ethyl]benzoyl]-l-glutamic acid and process therefor” (priority 2002, published 2003).
One block for each compound: values may come before it.

Legend:
[1] = Stability study: total related substances of crystalline form lots on storage
[2] = Stability study: solvents (water) content of crystalline form lots on storage
[3] = 2.5 hydrate lots stored at 5° C.
[4] = accelerated conditions 25° C., 60% relative humidity
[5] = stored at 5° C., 0 months, lots A-C water and ethanol, lot D water only
[6] = accelerated conditions 30° C., 0 months
[7] = accelerated conditions 30° C., 1 month
[8] = accelerated conditions 30° C., 2 months
[9] = accelerated conditions 30° C., 3 months
[10] = accelerated conditions 30° C., 6 months
[11] = heptahydrate lot stored at 5° C.
[12] = heptahydrate lot, 25° C./60% relative humidity and room temperature/uncontrolled humidity

change in the percent total related substances over time [1, 3]: did not change significantly over time
change in the percent total related substances over time [1, 4]: did not increase somewhat over time
Total Related Substances Results ([1]; accelerated conditions 25° C., 60% relative humidity, 0 months): 0.31% of Total
Total Related Substances Results ([1]; accelerated conditions 25° C., 60% relative humidity, 1 month): 0.31% of Total
Total Related Substances Results ([1]; accelerated conditions 25° C., 60% relative humidity, 2 months): 0.45% of Total
Total Related Substances Results ([1]; accelerated conditions 25° C., 60% relative humidity, 3 months): 0.40% of Total
Total Related Substances Results ([1]; accelerated conditions 25° C., 60% relative humidity, 6 months): 0.32% of Total
Total Related Substances Results ([1]; stored at 5° C., 0 months): 0.31% of Total
Total Related Substances Results ([1]; stored at 5° C., 3 months): 0.35% of Total
Total Related Substances Results ([1]; stored at 5° C., 6 months): 0.33% of Total
Total Related Substances Results ([1]; stored at 5° C., 9 months): 0.42% of Total
Total Related Substances Results ([1]; stored at 5° C., 12 months): 0.24% of Total
Solvents Results ([2]; accelerated conditions 25° C., 60% relative humidity, 0 months, water only): 8.5% of Total
Solvents Results ([2]; accelerated conditions 25° C., 60% relative humidity, 1 month, water only): 14.0% of Total
Solvents Results ([2]; accelerated conditions 25° C., 60% relative humidity, 2 months, water only): 20.5% of Total
Solvents Results ([2]; accelerated conditions 25° C., 60% relative humidity, 3 months, water only): 20.8% of Total
Solvents Results ([2]; accelerated conditions 25° C., 60% relative humidity, 6 months, water only): 21.2% of Total
Solvents Results [2, 5]: 8.5% of Total
Solvents Results ([2]; stored at 5° C., 3 months): 14.0% of Total
Solvents Results ([2]; stored at 5° C., 6 months): 18.2% of Total
Solvents Results ([2]; stored at 5° C., 9 months): 21.1% of Total
Solvents Results ([2]; stored at 5° C., 12 months): 21.7% of Total
SMILES: Nc1nc2[nH]cc(CCc3ccc(C(=O)N[C@@H](CCC(=O)O)C(=O)O)cc3)c2c(=O)[nH]1 [Lot D, pemetrexed disodium]
change in water content over time [2, 4]: shows an increase in water content to the heptahydrate form

change in the percent total related substances over time [1, 3]: did increase somewhat over time
change in the percent total related substances over time ([1]; accelerated conditions 30° C.): did change significantly over time
Total Related Substances Results [1, 6]: 0.38% of Total
Total Related Substances Results [1, 7]: 0.6% of Total
Total Related Substances Results [1, 8]: 0.76% of Total
Total Related Substances Results [1, 9]: 0.79% of Total
Total Related Substances Results [1, 10]: 1.33% of Total
Total Related Substances Results ([1]; stored at 5° C., 0 months): 0.38% of Total
Total Related Substances Results ([1]; stored at 5° C., 3 months): 0.79% of Total
Total Related Substances Results ([1]; stored at 5° C., 6 months): 0.79% of Total
Total Related Substances Results ([1]; stored at 5° C., 12 months): 0.51% of Total
Total Related Substances Results ([1]; stored at 5° C., 18 months): 0.43% of Total
Total Related Substances Results ([1]; stored at 5° C., 24 months): 0.44% of Total
Solvents Results [2, 6]: 8.8% of Total
Solvents Results [2, 7]: 20.6% of Total
Solvents Results [2, 8]: 19.3% of Total
Solvents Results [2, 9]: 17.2% of Total
Solvents Results [2, 10]: 8.9% of Total
Solvents Results [2, 5]: 8.8% of Total
Solvents Results ([2]; stored at 5° C., 3 months): 16.7% of Total
Solvents Results ([2]; stored at 5° C., 6 months): 8.8% of Total
Solvents Results ([2]; stored at 5° C., 12 months): 21.0% of Total
Solvents Results ([2]; stored at 5° C., 18 months): 20.8% of Total
Solvents Results ([2]; stored at 5° C., 24 months): 20.4% of Total
SMILES: Nc1nc2[nH]cc(CCc3ccc(C(=O)N[C@@H](CCC(=O)O)C(=O)O)cc3)c2c(=O)[nH]1 [Lot C, pemetrexed disodium]

Total Related Substances Results ([1]; 5 C., 0 mo.): 0.41%
Total Related Substances Results ([1]; 5 C., 0.5 mo.): 0.42%
Total Related Substances Results ([1]; 5 C., 1 mo.): 0.43%
Total Related Substances Results ([1]; 5 C., 2 mo.): 0.45%
Total Related Substances Results ([1]; 5 C., 3 mo.): 0.42%
Total Related Substances Results ([1]; 5 C., 6 mo.): 0.42%
Total Related Substances Results ([1]; 5 C., 9 mo.): 0.40%
Total Related Substances Results ([1]; 5 C., 12 mo.): 0.42%
Total Related Substances Results ([1]; 25 C./60% RH, 0 mo.): 0.41%
Total Related Substances Results ([1]; 25 C./60% RH, 0.25 mo.): 0.40%
Total Related Substances Results ([1]; 25 C./60% RH, 0.5 mo.): 0.44%
Total Related Substances Results ([1]; 25 C./60% RH, 0.75 mo.): 0.39%
Total Related Substances Results ([1]; 25 C./60% RH, 1 mo.): 0.43%
Total Related Substances Results ([1]; 25 C./60% RH, 3 mo.): 0.42%
Total Related Substances Results ([1]; 25 C./60% RH, 6 mo.): 0.42%
Total Related Substances Results ([1]; 25 C./60% RH, 12 mo.): 0.39%
Total Related Substances Results ([1]; RT/uncontrolled, 0 mo.): 0.41%
Total Related Substances Results ([1]; RT/uncontrolled, 0.25 mo.): 0.40%
Total Related Substances Results ([1]; RT/uncontrolled, 0.5 mo.): 0.43%
Total Related Substances Results ([1]; RT/uncontrolled, 0.75 mo.): 0.41%
Total Related Substances Results ([1]; RT/uncontrolled, 1 mo.): 0.43%
Total Related Substances Results ([1]; RT/uncontrolled, 2 mo.): 0.44%
Total Related Substances Results ([1]; RT/uncontrolled, 3 mo.): 0.42%
change in the percent total related substances over time [1, 11]: did not change significantly over time
change in the percent total related substances over time ([1]; heptahydrate lot stored at accelerated conditions): did not change significantly over time
Solvents (Water) Results ([2]; 5° C., time 0): 21.0%
Solvents (Water) Results ([2]; 5° C., time 0.5): 21.0%
Solvents (Water) Results ([2]; 5° C., time 1): 20.6%
Solvents (Water) Results ([2]; 5° C., time 2): 21.1%
Solvents (Water) Results ([2]; 5° C., time 3): 21.3%
Solvents (Water) Results ([2]; 5° C., time 6): 21.1%
Solvents (Water) Results ([2]; 5° C., time 9): 21.1%
Solvents (Water) Results ([2]; 5° C., time 12): 21.9%
Solvents (Water) Results ([2]; 25° C./60% RH, time 0): 21.0%
Solvents (Water) Results ([2]; 25° C./60% RH, time 0.25): 21.1%
Solvents (Water) Results ([2]; 25° C./60% RH, time 0.5): 21.1%
Solvents (Water) Results ([2]; 25° C./60% RH, time 0.75): 20.1%
Solvents (Water) Results ([2]; 25° C./60% RH, time 1): 20.1%
Solvents (Water) Results ([2]; 25° C./60% RH, time 3): 20.7%
Solvents (Water) Results ([2]; 25° C./60% RH, time 6): 21.3%
Solvents (Water) Results ([2]; 25° C./60% RH, time 12): 21.7%
Solvents (Water) Results ([2]; RT/uncontrolled RH, time 0): 21.0%
Solvents (Water) Results ([2]; RT/uncontrolled RH, time 0.25): 21.3%
Solvents (Water) Results ([2]; RT/uncontrolled RH, time 0.5): 20.8%
Solvents (Water) Results ([2]; RT/uncontrolled RH, time 0.75): 20.6%
Solvents (Water) Results ([2]; RT/uncontrolled RH, time 1): 20.6%
Solvents (Water) Results ([2]; RT/uncontrolled RH, time 2): 21.1%
Solvents (Water) Results ([2]; RT/uncontrolled RH, time 3): 21.1%
change in water content over time [2, 11]: does not change significantly over time
water content [2, 11]: approximately 21%
change in water content over time [2, 12]: does not change significantly over time
water content [2, 12]: approximately 21%
SMILES: Nc1nc2[nH]cc(CCc3ccc(C(=O)N[C@@H](CCC(=O)[O-])C(=O)[O-])cc3)c2c(=O)[nH]1.[Na+].[Na+] [Heptahydrate Lot, disodium N-[4-[2-(2-amino-4,7-dihydro-4-oxo-3H-pyrrolo[2,3-d]-pyrimidin-5-yl)ethyl]benzoyl]-L-glutamic acid salt]

change in the percent total related substances over time [1, 3]: did not change significantly over time
change in the percent total related substances over time ([1]; accelerated conditions 30° C.): did change significantly over time
Total Related Substances Results [1, 6]: 0.4% of Total
Total Related Substances Results [1, 7]: 0.4% of Total
Total Related Substances Results [1, 8]: 0.7% of Total
Total Related Substances Results [1, 9]: 0.6% of Total
Total Related Substances Results [1, 10]: 1.2% of Total
Total Related Substances Results ([1]; stored at 5° C., 0 months): 0.4% of Total
Total Related Substances Results ([1]; stored at 5° C., 3 months): 0.3% of Total
Total Related Substances Results ([1]; stored at 5° C., 6 months): 0.5% of Total
Total Related Substances Results ([1]; stored at 5° C., 12 months): 0.4% of Total
Solvents Results [2, 6]: 11.0% of Total
Solvents Results [2, 7]: 15.5% of Total
Solvents Results [2, 8]: 12.9% of Total
Solvents Results [2, 9]: 11.5% of Total
Solvents Results [2, 10]: 11.2% of Total
Solvents Results [2, 5]: 11.0% of Total
Solvents Results ([2]; stored at 5° C., 3 months): 21.0% of Total
Solvents Results ([2]; stored at 5° C., 6 months): 21.1% of Total
Solvents Results ([2]; stored at 5° C., 12 months): 21.0% of Total
SMILES: Nc1nc2[nH]cc(CCc3ccc(C(=O)N[C@@H](CCC(=O)O)C(=O)O)cc3)c2c(=O)[nH]1 [Lot B, pemetrexed disodium]

change in the percent total related substances over time [1, 3]: did not change significantly over time
change in the percent total related substances over time ([1]; accelerated conditions 30° C.): did change significantly over time
Total Related Substances Results [1, 6]: 0.24% of Total
Total Related Substances Results [1, 7]: 0.35% of Total
Total Related Substances Results [1, 8]: 0.41% of Total
Total Related Substances Results [1, 9]: 0.6% of Total
Total Related Substances Results [1, 10]: 1.1% of Total
Total Related Substances Results ([1]; stored at 5° C., 0 months): 0.24% of Total
Total Related Substances Results ([1]; stored at 5° C., 3 months): 0.26% of Total
Total Related Substances Results ([1]; stored at 5° C., 6 months): 0.27% of Total
Total Related Substances Results ([1]; stored at 5° C., 12 months): 0.28% of Total
Total Related Substances Results ([1]; stored at 5° C., 18 months): 0.4% of Total
Total Related Substances Results ([1]; stored at 5° C., 24 months): 0.4% of Total
Solvents Results [2, 6]: 10.2% of Total
Solvents Results [2, 7]: 10.9% of Total
Solvents Results [2, 8]: 10.6% of Total
Solvents Results [2, 9]: 10.7% of Total
Solvents Results [2, 10]: 9.3% of Total
Solvents Results [2, 5]: 10.2% of Total
Solvents Results ([2]; stored at 5° C., 3 months): 22.0% of Total
Solvents Results ([2]; stored at 5° C., 6 months): 21.1% of Total
Solvents Results ([2]; stored at 5° C., 12 months): 21.5% of Total
Solvents Results ([2]; stored at 5° C., 18 months): 22.3% of Total
Solvents Results ([2]; stored at 5° C., 24 months): 21.1% of Total
SMILES: Nc1nc2[nH]cc(CCc3ccc(C(=O)N[C@@H](CCC(=O)O)C(=O)O)cc3)c2c(=O)[nH]1 [Lot A, pemetrexed disodium]
